Experimental data as given in patent US5976875A, “Diacylglycerol kinase isoforms epsilon and zeta and methods of use thereof” (priority 1997, dated 1999).
Where two headings read alike, the source gives them in different places.

How the values were obtained:
DGK.zeta. [1] = target: T1, DGK.zeta. (Homo sapiens, UniProt Q13574); assay: DAG kinase assay, homogenates of DGK.zeta.-transfected COS-7 cells; assay type: biochemical; details: for nmol phosphatidic acid/mg/h (DAG substrate specificity of DGK.zeta.): each diacylglycerol used as substrate, Table I
T1 construct: The DGK.zeta. cDNA was expressed in pcDNA 1/AMP (Invitrogen) in the foward orientation; expressed in transfected cells; host or cells: COS-7
Experimental: (§1) COS-7 Transfection--The DGK.zeta. cDNA was expressed in pcDNA 1/AMP (Invitrogen) in the foward orientation. Each p35 dish containing COS-7 cells at 60-80% confluence was transfected with 1 μg of plasmid DNA and 5 μl of LipofectAMINE according to manufacturer specifications (Life Technologies Inc.). The cells were harvested by washing with ice-cold Hanks' balanced salt solution (Ca^2+ - and […] -free) and were scraped into resuspension buffer (20 mM Tris-HCl, pH 7.4, 0.25 M sucrose, 1 mM EDTA, 4 mM EGTA, 1 mM dithiothreitol, 1 mM pheylmethylsulfonyl fluoride, 20 μg/ml each leupeptin, pepstain, aprotinin, and soybean trypsin inhibitor) 48 h following transfection. All homogenates were frozen on dry ice and stored at -70° C. until assayed.
(§2) DAG Kinase Assay--Cell homogenates were sonicated twice with 5 watts for 5 at 4° C. The protein concentration of each cell homogenate was measured following trichloracetic acid precipitation utilizing the BCA protein assay reagent (Pierce). Each assay contained 50 mM MOPS, pH 7.2, 100 mM NaCl, 20 mM MgCl2, 1 mM EGTA, 1 mM dithiothreitol, 2 mM 1,2-dieleoyl-an-glycerol, 3.5 mM phosphatidylserine, 75 mM octyl-β-glucopyranoside, 500 μM [γ^32 ]ATP, and 0-20 μg of cell homogenate in a volume of 200 μl. For substrate specificity experiments, various diacylglycerol species were substituted for 1,2-dioleoyl-an-glycerol. The reactions were initiated by the addition of ATP (20-30 μCi/μmol), were incubated for 10 min. At 24° C., and were terminated by the addition of 200 μl of 1% perchloric acid. Then, to each tube, we added 1.0 ml of MeOH, 1.0 ml of […], 500 μl of 1% perchloric acid, and 50 μg of phosphatidic acid, vortexed them well, and centrifuged them for 10 min at 400×g. The remaining lower phase was dried under N2 and resuspended in 100 μl of 9:1 CHCl3 /MeOH. Fifty μl of each sample were counted directly by liquid acintillation spectrometry, and the remainder was applied to a 20×20 cm Silica 60A thin layer chromatography plate (Whatman). […] The region containing phosphatidic acid (as indicated by radiolabeled standards) and the remaining areas of each lane were scraped separately, and the radioactivity was estimated by liquid scintillation spectrometry. The amount of phosphatidic acid formed per reaction was calculated as [2(direct count)(PA cpm)(total lane cpm)]×[mole ATP/cpm]. R59959 was dissolved in dimethyl sulfoxide and added to relevant enzymatic reactions just prior to the addition of ATP.

DGK.zeta. [2] = assay: as above; assay type: biochemical, human
Experimental: as §1, §2

[3] = test system: protein kinase M (PKM), catalytic fragment of mixed rat brain PKC isozymes; assay: Phosphorylation of peptides by PKM (kinetics); assay type: biochemical; details: for Km: 10 minute reaction, 30° C., read-out: Km as substrate for PKM
Experimental: Phosphorylation of peptides and proteins--Peptides were phosphorylated by the purified catalytic fragment of mixed rat brain PKC isozymes (protein kinase M; PKM). In all cases involving kinetic measurements, the peptides were phosphorylated by PKM (1:120 dilution of frozen stock solution) at 30° C. All reactions were performed in the linear range of peptide phosphorylation, in an assay mixture containing 40 mM Hepes (pH 7.4), 0.25 mM EGTA, 12.5 mM MgCl2, 75 μM y-[^32 P]ATP, and various concentrations of peptides. In the peptide experiments, the reactions were stopped after 10 minutes by the addition of 1/5 vol of 5×SDS sample buffer, boiled for 5 minutes and then subjected to electrophoresis on 20% acrylamide gels. After the gels were dried, the phosphorylated peptides were localized by autoradiography, excised from the gel, and subjected to Cerenkov scintillation counting.

T1 sequence (Q13574 whole entry): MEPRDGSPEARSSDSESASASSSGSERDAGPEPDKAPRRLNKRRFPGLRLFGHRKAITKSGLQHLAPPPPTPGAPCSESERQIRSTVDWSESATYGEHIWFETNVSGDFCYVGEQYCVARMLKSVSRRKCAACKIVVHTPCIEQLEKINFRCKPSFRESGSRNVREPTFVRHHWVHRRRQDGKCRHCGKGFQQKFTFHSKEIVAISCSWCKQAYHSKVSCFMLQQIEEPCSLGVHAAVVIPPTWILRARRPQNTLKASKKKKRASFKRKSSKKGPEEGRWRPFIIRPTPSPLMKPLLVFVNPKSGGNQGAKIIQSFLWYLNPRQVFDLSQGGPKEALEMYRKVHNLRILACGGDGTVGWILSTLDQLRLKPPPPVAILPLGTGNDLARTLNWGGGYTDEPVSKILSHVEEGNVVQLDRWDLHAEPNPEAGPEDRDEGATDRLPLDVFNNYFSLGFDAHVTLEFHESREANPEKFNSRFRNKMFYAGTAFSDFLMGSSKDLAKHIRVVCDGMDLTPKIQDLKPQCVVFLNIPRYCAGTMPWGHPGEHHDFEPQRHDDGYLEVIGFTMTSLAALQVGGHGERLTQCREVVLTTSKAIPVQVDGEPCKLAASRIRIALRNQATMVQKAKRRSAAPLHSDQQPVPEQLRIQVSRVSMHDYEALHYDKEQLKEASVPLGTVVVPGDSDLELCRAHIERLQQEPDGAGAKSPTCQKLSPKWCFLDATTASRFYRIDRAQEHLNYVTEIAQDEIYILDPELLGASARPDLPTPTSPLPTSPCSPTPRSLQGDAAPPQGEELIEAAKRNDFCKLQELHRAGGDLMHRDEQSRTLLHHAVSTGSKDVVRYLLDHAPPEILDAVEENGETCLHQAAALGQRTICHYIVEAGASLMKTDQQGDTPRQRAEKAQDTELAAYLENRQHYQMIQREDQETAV

For CCCCCCCCCC(=O)OC[C@H](CO)OC(=O)CCCCCCCCC [1,2-Dicapryl-sn-glycerol], the “nmol phosphatidic acid/mg/h (DAG substrate specificity of DGK.zeta.)” value (“nmol phosphatidic acid/mg/h” for short) (DGK.zeta. [1]) was 1440 ± 42 nmol phosphatidic acid/mg/h.

In the case of CCCCCCCC/C=C\CCCCCCCC(=O)OC[C@H](CO)OC(=O)CCCCCCC/C=C\CCCCCCCC [1,2-Dioleoyl-sn-glycerol], the “nmol phosphatidic acid/mg/h” value (DGK.zeta. [1]) is reported as 1021 ± 9 nmol phosphatidic acid/mg/h.

With CCCCCCCC/C=C\CCCCCCCC(=O)OCC(O)COC(=O)CCCCCCC/C=C\CCCCCCCC [1,3-Dioleoyl-sn-glycerol] the “nmol phosphatidic acid/mg/h” value (DGK.zeta. [1]) was 110 ± 8 nmol phosphatidic acid/mg/h.

CCCCCCCC/C=C\CCCCCCCC(=O)OC[C@H](CO)OC(=O)CCCCCCCCCCCCCCC [1-Oleoyl-2-palmitoyl-sn-glycerol] was tested, and the “nmol phosphatidic acid/mg/h” value (DGK.zeta. [1]) was 856 ± 35 nmol phosphatidic acid/mg/h.

With CCCCCCCC/C=C\CCCCCCCC(=O)O[C@@H](CO)COC(=O)CCCCCCCCCCCCCCC [1-Palmitoyl-2-oleoyl-sn-glycerol] the “nmol phosphatidic acid/mg/h” value (DGK.zeta. [1]) was 805 ± 8 nmol phosphatidic acid/mg/h.

In the case of CCCCC/C=C\C/C=C\C/C=C\C/C=C\CCCC(=O)O[C@@H](CO)COC(=O)CCCCCCCCCCCCCCCCC [1-Stearoyl-2-arachidonyl-sn-glycerol], the “nmol phosphatidic acid/mg/h” value (DGK.zeta. [1]) is reported as 1106 ± 34 nmol phosphatidic acid/mg/h.

CCCCCCCC/C=C\CCCCCCCC(=O)O[C@@H](CO)COC(=O)CCCCCCCCCCCCCCCCC [1-Stearoyl-2-oleoyl-sn-glycerol] was tested, and the “nmol phosphatidic acid/mg/h” value (DGK.zeta. [1]) was 801 ± 13 nmol phosphatidic acid/mg/h.

With [Ca+2] [calcium] the “effect of excess calcium on DGK.zeta. activity” value (DGK.zeta. [1]; 0.1-2 mm calcium added at start of reaction) was “no increase in activity”.

With “DGK.zeta.: human diacylglycerol kinase zeta, 928-amino acid protein (SEQ ID NO: 4)” the DGK activity (DGK.zeta. [1]; 1,2-dicapryl-sn-glycerol substrate, typical experiment, FIG. 21) was 7.5 nmol/mg/min, the “increase in DGK activity compared to vector-transfected cells” value (DGK.zeta. [1]; 1,2-dioleoyl-sn-glycerol substrate, FIG. 7) was 267 fold and the catalytic activity (DGK.zeta. [2]; native vs ankyrin repeat-deleted (FLAG-tagged) DGK.zeta.) was 1764 nmol PA/mg/hr. The DGK.zeta. activity (DGK.zeta. [2]; native vs zinc finger deletion mutants, Table II) was 243 nmol PA/mg/hr and the Relative activity (DGK.zeta. [2]; relative to native DGK.zeta. = 100, Table II) was 100.

“KASKKKKRASFKRKSSKK [DGK peptide, 18 amino acid peptide corresponding to residues 256-273 of DGK.zeta]” showed a Km ([3]; listed as native peptide) of ~0.5 µM, a Km [3] of 0.5 µM and a Hill constant ([3]; phosphorylation by PKM) of 0.7.
